Reference: PubChem BioAssay (NCI)
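Briefly, cells in 96-well plates were exposed to five compound concentrations for 48 h, and endpoints were estimated by linear interpolation. TGI: concentration producing complete growth inhibition.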

Assays:
Test in all cases: DTP human tumour cell line panel, 48 h
786-0 renal = tested on: 786-0 renal
A498 renal = tested on: A498 renal
A549 NSCLC = tested on: A549 NSCLC
ACHN renal = tested on: ACHN renal
CCRF-CEM leukemia = tested on: CCRF-CEM leukemia
DLD-1 colon = tested on: DLD-1 colon
DMS 114 small cell lung = tested on: DMS 114 small cell lung
DMS 273 small cell lung = tested on: DMS 273 small cell lung
HCT-116 colon = tested on: HCT-116 colon
HCT-15 colon = tested on: HCT-15 colon
HL-60(TB) leukemia = tested on: HL-60(TB) leukemia
HOP-18 NSCLC = tested on: HOP-18 NSCLC
HT29 colon = tested on: HT29 colon
IGROV1 ovarian = tested on: IGROV1 ovarian
K-562 leukemia = tested on: K-562 leukemia
KM12 colon = tested on: KM12 colon
LOX IMVI melanoma = tested on: LOX IMVI melanoma
LXFL 529 NSCLC = tested on: LXFL 529 NSCLC
M14 melanoma = tested on: M14 melanoma
M19-MEL melanoma = tested on: M19-MEL melanoma
MALME-3M melanoma = tested on: MALME-3M melanoma
MOLT-4 leukemia = tested on: MOLT-4 leukemia
NCI-H226 lung = tested on: NCI-H226 lung
NCI-H23 lung = tested on: NCI-H23 lung
NCI-H460 lung = tested on: NCI-H460 lung
NCI-H522 lung = tested on: NCI-H522 lung
OVCAR-3 ovarian = tested on: OVCAR-3 ovarian
OVCAR-4 ovarian = tested on: OVCAR-4 ovarian
OVCAR-8 ovarian = tested on: OVCAR-8 ovarian
RXF 393 renal = tested on: RXF 393 renal
SF-268 CNS = tested on: SF-268 CNS
SF-295 CNS = tested on: SF-295 CNS
SF-539 CNS = tested on: SF-539 CNS
SK-MEL-2 melanoma = tested on: SK-MEL-2 melanoma
SK-MEL-28 melanoma = tested on: SK-MEL-28 melanoma
SK-MEL-5 melanoma = tested on: SK-MEL-5 melanoma
SK-OV-3 ovarian = tested on: SK-OV-3 ovarian
SN12C renal = tested on: SN12C renal
SNB-19 CNS = tested on: SNB-19 CNS
SNB-75 CNS = tested on: SNB-75 CNS
SNB-78 CNS = tested on: SNB-78 CNS
TK-10 renal = tested on: TK-10 renal
U251 CNS = tested on: U251 CNS
UACC-257 melanoma = tested on: UACC-257 melanoma
UACC-62 melanoma = tested on: UACC-62 melanoma
UO-31 renal = tested on: UO-31 renal

Measured: TGI

CNC(=O)C(C)Oc1ccc(OCC2CCCCC2)cc1 (stereo unspecified)
> 100 µM: all assays above
